According to patent US8735622B2, “Histone demethylase inhibitors and methods for using the same” (The Regents of the University of Colorado, a body corporate, priority 2011, dated 2014):

Tests used:
[1] = target: T1, GST-JMJD2A(1-420) (Homo sapiens, UniProt O75164); experiment: Fluorescence polarization (FP) binding assay, JMJD2A; conditions: 1 nM fluorophore, 2 h at room temperature, read-out: dissociation constant (Kd) to GST-JMJD2A(1-420)
T1 construct: Recombinant protein preparation of GASC1(1-420), JMJD2A (1-420) and LSD1 (full-length); made in house; host or cells: Escherichia coli BL-21
T1 sequence (O75164 1-420): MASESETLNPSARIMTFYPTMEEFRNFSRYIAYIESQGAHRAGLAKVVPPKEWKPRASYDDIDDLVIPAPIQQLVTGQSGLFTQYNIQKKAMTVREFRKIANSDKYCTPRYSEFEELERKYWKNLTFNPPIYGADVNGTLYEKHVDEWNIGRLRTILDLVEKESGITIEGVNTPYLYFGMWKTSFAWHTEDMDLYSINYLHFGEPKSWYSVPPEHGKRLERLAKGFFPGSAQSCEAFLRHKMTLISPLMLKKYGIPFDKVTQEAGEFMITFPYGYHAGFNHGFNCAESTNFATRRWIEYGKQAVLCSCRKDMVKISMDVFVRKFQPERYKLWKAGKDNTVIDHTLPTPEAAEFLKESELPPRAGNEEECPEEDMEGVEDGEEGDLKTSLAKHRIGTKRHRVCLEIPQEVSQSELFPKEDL
Experimental: (§1) To measure fluorescence polarization, a Perkin Elmer EnVision 2102 Multilabel plate reader equipped with FP-FITC optic module was used. Corning half-area, black, flat-bottom, polystyrene, 96-well plates (cat. #: 3993) were used for all FP studies. Auto-adjustment of focal height and gain was performed in the well containing 80 μL of 1 nM fluorophore 20, the recommended concentration of fluorescein for this plate reader.
(§2) The dissociation constant (Kd) for fluorophore 20 to GST-JMJD2A(1-420) was measured (See FIG. 8) by titrating 20 (1 nM) with purified JMJD2A using protocols reported by Rossi et al. in Nat. Protoc., 2011, 6(3), 365-87. Fluorescence intensity values in parallel (i.e., I11) and perpendicular (i.e., I⊥) planes for each well were measured after 2 h of incubation at room temperature. For each experimental measurement, the protein background was subtracted, and the polarization (P) was calculated using these corrected values of I11 and I⊥ from the equation: P=(I11−G·I⊥)/(I11+G·I⊥), where the G factor is derived from the instrument auto-adjustment step. […] The Kd for 20 and JHDM1A was determined as 30±5 nM in a similar fashion.

[2] = target: T2, JHDM1A (Homo sapiens, UniProt Q9Y2K7); experiment: Fluorescence polarization (FP) binding assay, JHDM1A; conditions: read-out: dissociation constant (Kd) to JHDM1A
T2 sequence (Q9Y2K7 1-1162): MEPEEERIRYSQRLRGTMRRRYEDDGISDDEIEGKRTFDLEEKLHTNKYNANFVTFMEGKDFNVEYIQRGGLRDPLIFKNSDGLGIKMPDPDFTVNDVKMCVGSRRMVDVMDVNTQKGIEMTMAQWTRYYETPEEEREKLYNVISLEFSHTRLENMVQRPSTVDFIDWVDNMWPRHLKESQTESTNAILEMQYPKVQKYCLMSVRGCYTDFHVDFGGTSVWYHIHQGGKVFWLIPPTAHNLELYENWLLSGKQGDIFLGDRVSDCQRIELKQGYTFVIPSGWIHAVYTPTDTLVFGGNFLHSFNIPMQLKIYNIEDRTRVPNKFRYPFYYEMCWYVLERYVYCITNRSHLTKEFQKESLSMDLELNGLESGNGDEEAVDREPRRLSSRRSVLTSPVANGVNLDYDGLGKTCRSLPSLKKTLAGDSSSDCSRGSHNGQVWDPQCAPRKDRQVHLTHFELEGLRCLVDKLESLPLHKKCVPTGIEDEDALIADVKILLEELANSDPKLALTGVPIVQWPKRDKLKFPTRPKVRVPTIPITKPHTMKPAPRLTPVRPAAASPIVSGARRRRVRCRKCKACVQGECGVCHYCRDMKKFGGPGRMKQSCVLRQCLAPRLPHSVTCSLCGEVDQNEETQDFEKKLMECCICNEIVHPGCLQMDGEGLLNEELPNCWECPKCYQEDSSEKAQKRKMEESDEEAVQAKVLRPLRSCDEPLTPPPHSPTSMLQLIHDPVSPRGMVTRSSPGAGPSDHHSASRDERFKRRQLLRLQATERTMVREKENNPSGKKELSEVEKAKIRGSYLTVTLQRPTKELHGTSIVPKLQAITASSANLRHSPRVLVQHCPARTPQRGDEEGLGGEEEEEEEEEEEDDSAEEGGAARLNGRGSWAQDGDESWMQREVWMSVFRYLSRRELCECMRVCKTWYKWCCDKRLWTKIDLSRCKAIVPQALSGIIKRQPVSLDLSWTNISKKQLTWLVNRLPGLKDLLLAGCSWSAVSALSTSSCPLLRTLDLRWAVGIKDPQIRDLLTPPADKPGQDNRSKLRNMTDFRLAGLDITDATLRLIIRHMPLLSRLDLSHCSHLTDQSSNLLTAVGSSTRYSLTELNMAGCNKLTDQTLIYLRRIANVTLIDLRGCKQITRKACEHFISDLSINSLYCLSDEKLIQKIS
Experimental: as §1, §2

[3] = system: H3K4me3 and H3K9me3 levels in KYSE150 cells; experiment: Quantitative immunostaining assay of H3K4me3 and H3K9me3 in KYSE150 cells; format: cell-based, human; conditions: 2.5 μM, 48 h
Experimental: To quantify the cellular activity of methylstat, a quantitative image-based assay was used. […] The cellular effects of methylstat were also cell type-specific.
For quantified immunostaining experiments, KYSE150 or MCF7 cells were seeded in a 96-well plate at 10,000 cells per well and incubated at 37° C. for 24 hours. The medium was replaced and methylstat in DMSO was added at the concentration as indicated. After incubation for another 48 hours, immunostaining procedure was performed as described above using anti-H3K9me3 or anti-H3K4me3 primary antibody. Fluorescent images of cells were acquired by a Nikon Eclipse 90i fluorescence microscope and analyzed using the Cell Scoring analysis module of MetaMorph 7.0 software.

[4] = system: prolyl hydroxylases (PHDs); experiment: Cellular HIF-1α level (prolyl hydroxylase specificity) in MCF7 cells; format: cell-based, human; conditions: 24 hours, methylstat up to 15 μM, DFO 150 μM, DMOG 1 and 2 mM
Text: To assess the specificity of methylstat in vivo, another iron(II)- and α-ketoglutarate-dependent dioxygenases, prolyl hydroxylases (PHDs), was examined. PHDs have been reported to regulate normoxic inactivation of hypoxia-inducible factors (HIFs) by hydroxylating specific prolyl residues of HIFs. […] DMOG and DFO have been used to mimic hypoxia conditions by inhibiting PHDs in vivo. […] Similar results were also observed in HeLa cells (see FIG. 7).
Total lysates of cells were generated from the cells lysed in CelLytic M Cell Lysis (Sigma) with protease inhibitor cocktail (Sigma), mixed with 2×LSB buffer (100 mM Tris-HCl pH 6.8, 200 mM DTT, 4% SDS, 20% glycerol and 0.2% bromophenol blue) and boiled for 5 min before SDS-PAGE. BCA assay (Thermo) was applied for protein qualification.

Compound | cellular activity in H3K4me3- and H3K9me3-immunostaining assays relative to methylstat [3] | cellular HIF-1α levels / prolyl hydroxylase inhibition [4] | further results
NCc1ccc(CN(CCCCN(O)C(=O)/C=C/C(=O)O)C(=S)Nc2ccc(C3=C4C=CC(=O)C=C4Cc4cc(O)ccc43)c(C(=O)O)c2)cc1 [Compound 20] | – | – | Kd [1]: 175 ± 42 nM; Kd [2]: 30 ± 5 nM
COC(=O)C(=O)N(O)CCCCNCc1ccc(COC(=O)Nc2cccc3ccccc23)cc1 [Compound 23a] | significantly decreased cellular activity | – | –
COC(=O)/C=C/C(=O)N(O)CCCC[N+](C)(C)Cc1ccc(COC(=O)Nc2cccc3ccccc23)cc1.[I-] [Compound 23f] | reduced its activity | – | –
COC(=O)CNC(=O)C(=O)OC [DMOG, dimethyl oxalylglycine, reference compound] | – | significantly increased cellular levels of HIF-1α | –
deferoxamine mesylate salt [DFO, reference compound] | – | significantly increased cellular levels of HIF-1α | –
